Legend:
mud puppy taste cells = experiment: Response of isolated taste cells to bitter-tasting compounds, intracellular calcium fluorescence; format: cell-based
Experimental: Taste cells are isolated from the mud puppy, a type of salamander (S. C. Kinnamon, et al, Chemical Senses 13: 355 - 366, 1988). Briefly, a fresh mud puppy tongue is incubated with collagenase, the non-gustatory epithelium is peeled off the surface, and individual taste buds are gently drawn into a micropipette using a dissecting microscope at 50X magnification. The taste buds are plated into small vessels, that are coated with Cell-Tak, containing culture media. The taste cells can remain viable up to 18 days and maintain normal functions (C. Ruiz, et al, Experimental Cell Biology of Taste and Olfaction, Current Techniques and Protocols, A. I. Spielman and J. G. Brand, eds., CRC Press, 1995, pp. 79 - 84). The taste cells are labeled intracellularly with a marker compound that fluoresces in a dose-dependent fashion to calcium ion concentration. Since an increase in the intracellular calcium ion concentration is one of the last steps in converging biochemical signal transduction pathways for bitterness, the fluorescent marker correlates with taste cell response to bitterness (D. Restrepo, et al, Experimental Cell Biology of Taste and Olfaction, Current Techniques and Protocols, A. I. Spielman and J. G. Brand, eds., CRC Press, 1995, pp. 387 - 398). Labeled taste cells are observed microscopically using image analysis software. Using a micropipette, taste cells are exposed to bitter-tasting compounds by adding the compounds in media near the taste cell. Cells that respond to the bitter-tasting compound show an increase in fluorescence intensity. Bitter inhibitors are tested by adding them to the test solution with the bitter-tasting compound. The response of individual taste cells to bitter-tasting compounds and to bitter-tasting compounds plus inhibitor are monitored by measuring the fluorescent intensity using a microscope. Images are stored electronically and image analysis software is used to analyze the data (D. Restrepo, et al, Biophysical Journal 64: 1961 - 1966, 1993).

[1] = tested on: human taste response to bitter-tasting compounds; experiment: Human taste test: detection threshold of bitter-tasting compounds with and without VMP; format: in vivo; details: 0.3% VMP
Experimental: In the first taste test, the detection threshold for a bitter-tasting compound is determined by having subjects taste a series of solutions containing increasing concentrations of the bitter-tasting compound. None of the subjects are able to taste the bitterness in the first solution containing the lowest concentration of the bitter-tasting molecule. The subjects are instructed to indicate the first, or lowest concentration of solution that is sensed as bitter. This concentration is the detection threshold for that particular compound and subject. […] The detection threshold for the bitter-tasting compound plus inhibitor is likewise determined. All of these aqueous solutions contain 5% sucrose. […] The dilution series are in ^1/2 log increments (i.e., 1 uM, 3.2 uM, 10 uM, 32 uM). The pair of dilution series with and without inhibitor is tasted within a 2 hour time period. Subjects are blinded as to the identity of the bitter compound and whether inhibitor is present or not. The two dilution series are presented in random order. […]

[2] = tested on: human taste response to bitter-tasting compounds; experiment: Human taste test: paired comparisons of bitter-tasting compounds with and without VMP; format: in vivo; details: inhibitor 0.3%; for Cert. (%): mean certainty score
From the text: In this test all samples contain 5% sucrose. […] Subjects rate which sample is most bitter, and also indicate on a 7 point scale the certainty of their choice. […] However, it inhibits bitterness of phenylpropanolamine and guaifenesin to a lesser degree.

[3] = acetaminophen 10.00 mM, total # responses 4
[4] = acetaminophen 32.00 mM, total # responses 5
[5] = chlorpheniramine maleate 0.100 mM, total # responses 4
[6] = chlorpheniramine maleate 1.000 mM, total # responses 4
[7] = dextromethorphan 0.320 mM, total # responses 4
[8] = guaifenesin 0.320 mM, total # responses 4
[9] = guaifenesin 3.200 mM, total # responses 4
[10] = guaifenesin 10.00 mM, total # responses 4
[11] = phenylpropanolamine HCl 3.200 mM, total # responses 5
[12] = phenylpropanolamine HCl 10.00 mM, total # responses 5
[13] = pseudoephedrine HCl 0.320 mM, total # responses 5
[14] = pseudoephedrine HCl 1.000 mM, total # responses 5
[15] = sucrose octaacetate 0.001 mM, total # responses 5
[16] = sucrose octaacetate 0.003 mM, total # responses 5

For vanillylmonophosphate [VMP], the “effect on taste cell response to denatonium benzoate” value (mud puppy taste cells; inhibitor mixed with denatonium benzoate) was “decreases the taste cell response”, the “effect on taste cell response to dextromethorphan” value (mud puppy taste cells; inhibitor mixed with dextromethorphan) was “decreases the taste cell response” and the “# VMP did not change threshold” value ([1]; CPC, n 2) was 1. The “# VMP increased threshold” value ([1]; CPC, n 2) was 0, the “% Subjects that VMP increased threshold” value ([1]; CPC, n 2) was 0.00% and the “# VMP did not change threshold” value ([1]; acetaminophen, n 5) was 3. The “# VMP increased threshold” value ([1]; acetaminophen, n 5) was 2, the “% Subjects that VMP increased threshold” value ([1]; acetaminophen, n 5) was 40.00% and the “# VMP did not change threshold” value ([1]; caffeine, n 4) was 3. The “# VMP increased threshold” value ([1]; caffeine, n 4) was 0, the “% Subjects that VMP increased threshold” value ([1]; caffeine, n 4) was 0.00% and the “# VMP did not change threshold” value ([1]; chlorpheniramine maleate, n 5) was 0. For the same substance, the “# VMP increased threshold” value ([1]; chlorpheniramine maleate, n 5) was 4, the “% Subjects that VMP increased threshold” value ([1]; chlorpheniramine maleate, n 5) was 80.00% and the “# VMP did not change threshold” value ([1]; cimetidine, n 2) was 1. The “# VMP increased threshold” value ([1]; cimetidine, n 2) was 1, the “% Subjects that VMP increased threshold” value ([1]; cimetidine, n 2) was 50.00% and the “# VMP did not change threshold” value ([1]; denatonium benzoate, n 4) was 2. For the same substance, the “# VMP increased threshold” value ([1]; denatonium benzoate, n 4) was 2, the “% Subjects that VMP increased threshold” value ([1]; denatonium benzoate, n 4) was 50.00% and the “# VMP did not change threshold” value ([1]; dextromethorphan, n 5) was 4. For the same substance, the “# VMP increased threshold” value ([1]; dextromethorphan, n 5) was 1, the “% Subjects that VMP increased threshold” value ([1]; dextromethorphan, n 5) was 20.00% and the “# VMP did not change threshold” value ([1]; domiphen bromide, n 4) was 3. For the same substance, the “# VMP increased threshold” value ([1]; domiphen bromide, n 4) was 1, the “% Subjects that VMP increased threshold” value ([1]; domiphen bromide, n 4) was 25.00% and the “# VMP did not change threshold” value ([1]; doxylamine succinate, n 3) was 1. For the same substance, the “# VMP increased threshold” value ([1]; doxylamine succinate, n 3) was 2, the “% Subjects that VMP increased threshold” value ([1]; doxylamine succinate, n 3) was 66.67% and the “# VMP did not change threshold” value ([1]; famotidine, n 3) was 3. For the same substance, the “# VMP increased threshold” value ([1]; famotidine, n 3) was 0, the “% Subjects that VMP increased threshold” value ([1]; famotidine, n 3) was 0.00% and the “# VMP did not change threshold” value ([1]; guaifenesin, n 8) was 2. The “# VMP increased threshold” value ([1]; guaifenesin, n 8) was 2, the “% Subjects that VMP increased threshold” value ([1]; guaifenesin, n 8) was 25.00% and the “# VMP did not change threshold” value ([1]; phenylpropanolamine, n 7) was 2. For the same substance, the “# VMP increased threshold” value ([1]; phenylpropanolamine, n 7) was 4, the “% Subjects that VMP increased threshold” value ([1]; phenylpropanolamine, n 7) was 57.14% and the “# VMP did not change threshold” value ([1]; pseudoephedrine, n 5) was 2. The “# VMP increased threshold” value ([1]; pseudoephedrine, n 5) was 2, the “% Subjects that VMP increased threshold” value ([1]; pseudoephedrine, n 5) was 40.00% and the “# VMP did not change threshold” value ([1]; ranitidine, n 3) was 1. For the same substance, the “# VMP increased threshold” value ([1]; ranitidine, n 3) was 1, the “% Subjects that VMP increased threshold” value ([1]; ranitidine, n 3) was 33.33% and the “# VMP did not change threshold” value ([1]; sucrose octaacetate, n 7) was 4. The “# VMP increased threshold” value ([1]; sucrose octaacetate, n 7) was 1, the “% Subjects that VMP increased threshold” value ([1]; sucrose octaacetate, n 7) was 14.29% and the “Cert. (%)” value ([2]; acetaminophen 10.00 mM) was 43%. The Corr./Tot. [2, 3] was 0.50, the “Correct # responses” value [2, 3] was 2 and the “Cert. (%)” value ([2]; acetaminophen 32.00 mM) was 29%. For the same substance, the Corr./Tot. [2, 4] was 0.80, the “Correct # responses” value [2, 4] was 4 and the “Cert. (%)” value ([2]; chlorpheniramine maleate 0.100 mM) was 54%. For the same substance, the Corr./Tot. [2, 5] was 1.00, the “Correct # responses” value [2, 5] was 4 and the “Cert. (%)” value ([2]; chlorpheniramine maleate 1.000 mM) was 71%. For the same substance, the Corr./Tot. [2, 6] was 1.00, the “Correct # responses” value [2, 6] was 4 and the “Cert. (%)” value ([2]; dextromethorphan 0.320 mM) was 82%. The Corr./Tot. [2, 7] was 1.00, the “Correct # responses” value [2, 7] was 4 and the “Cert. (%)” value ([2]; guaifenesin 0.320 mM) was 14%. The Corr./Tot. [2, 8] was 0.50, the “Correct # responses” value [2, 8] was 2 and the “Cert. (%)” value ([2]; guaifenesin 3.200 mM) was 36%. For the same substance, the Corr./Tot. [2, 9] was 0.50, the “Correct # responses” value [2, 9] was 2 and the “Cert. (%)” value ([2]; guaifenesin 10.00 mM) was 57%. The Corr./Tot. [2, 10] was 0.75, the “Correct # responses” value [2, 10] was 3 and the “Cert. (%)” value ([2]; phenylpropanolamine HCl 3.200 mM) was 11%. For the same substance, the Corr./Tot. [2, 11] was 0.40, the “Correct # responses” value [2, 11] was 2 and the “Cert. (%)” value ([2]; phenylpropanolamine HCl 10.00 mM) was 49%. For the same substance, the Corr./Tot. [2, 12] was 0.80, the “Correct # responses” value [2, 12] was 4 and the “Cert. (%)” value ([2]; pseudoephedrine HCl 0.320 mM) was 14%. The Corr./Tot. [2, 13] was 0.60, the “Correct # responses” value [2, 13] was 3 and the “Cert. (%)” value ([2]; pseudoephedrine HCl 1.000 mM) was 34%. The Corr./Tot. [2, 14] was 0.40, the “Correct # responses” value [2, 14] was 2 and the “Cert. (%)” value ([2]; sucrose octaacetate 0.001 mM) was 20%. For the same substance, the Corr./Tot. [2, 15] was 0.20, the “Correct # responses” value [2, 15] was 1 and the “Cert. (%)” value ([2]; sucrose octaacetate 0.003 mM) was 23%. The Corr./Tot. [2, 16] was 0.40 and the “Correct # responses” value [2, 16] was 2.

— EP0845217A1, “Inhibiting undesirable taste in oral compositions” (priority 1996, dated 1998)
